Data from patent US20060247227A1, “Substituted piperidines as histamine h3 receptor ligands” (priority 2003, published 2006).
Where a name gives a salt, the structure may show the parent alone.

Molecular target: T1, histamine H3 receptor (Homo sapiens, UniProt Q9Y5N1)
T1 construct: expressed in transfected cells; host or cells: CHO K1 cells carrying pSwitch, transfected with pGeneH3 and induced with mifepristone; clone 3H3; membranes
Test: Histamine H3 functional antagonist assay ([35S]GTPγS, SPA, membranes of CHO K1 cells expressing the receptor)
Assay type: biochemical
Settings: histamine-stimulated GTPγS binding, membranes with human H3
Description: A membrane preparation containing histamine H3 receptors may be prepared in accordance with the following procedures:
(i) Generation of Histamine H3 Cell Line
DNA encoding the human histamine H3 gene (Huvar, A. et al. (1999) Mol. Pharmacol. 55(6), 1101-1107) was cloned into a holding vector, pCDNA3.1 TOPO (InVitrogen) and its cDNA was isolated from this vector by restriction digestion of plasmid DNA with the enzymes BamH1 and Not-1 and ligated into the inducible expression vector pGene (InVitrogen) digested with the same enzymes. The GeneSwitch™ system (a system where in transgene expression is switched off in the absence of an inducer and switched on in the presence of an inducer) was performed as described in U.S. Pat. Nos. 5,364,791; 5,874,534; and 5,935,934. Ligated DNA was transformed into competent DH5α E. coli host bacterial cells and plated onto Luria Broth (LB) agar containing Zeocin™ (an antibiotic which allows the selection of cells expressing the sh ble gene which is present on pGene and pSwitch) at 50 μg ml^−1. Colonies containing the re-ligated plasmid were identified by restriction analysis. DNA for transfection into mammalian cells was prepared from 250 ml cultures of the host bacterium containing the pGeneH3 plasmid and isolated using a DNA preparation kit (Qiagen Midi-Prep) as per manufacturers guidelines (Qiagen).
CHO K1 cells previously transfected with the pSwitch regulatory plasmid (InVitrogen) were seeded at 2×10e6cells per T75 flask in Complete Medium, containing Hams F12 (GIBCOBRL, Life Technologies) medium supplemented with 10% v/v dialysed foetal bovine serum, L-glutamine, and hygromycin ([…]), 24 hours prior to use. Plasmid DNA was transfected into the cells using Lipofectamine plus according to the manufacturers guidelines (InVitrogen). 48 hours post transfection cells were placed into complete medium supplemented with […] Zeocin™.
10-14 days post selection 10 nM Mifepristone (InVitrogen), was added to the culture medium to induce the expression of the receptor. 18 hours post induction cells were detached from the flask using ethylenediamine tetra-acetic acid (EDTA; 1:5000; InVitrogen), following several washes with phosphate buffered saline pH 7.4and resuspended in Sorting Medium containing Minimum Essential Medium (MEM), without phenol red, and supplemented with Earles salts and 3% Foetal Clone II (Hyclone). Approximately 1×10e7 cells were examined for receptor expression by staining with a rabbit polyclonal antibody, 4a, raised against the N-terminal domain of the histamine H3 receptor, incubated on ice for 60 minutes, followed by two washes in sorting medium. Receptor bound antibody was detected by incubation of the cells for 60 minutes on ice with a goat anti rabbit antibody, conjugated with Alexa 488 fluorescence marker (Molecular Probes). Following two further washes with Sorting Medium, cells were filtered through a 50 μm Filcon™ (BD Biosciences) and then analysed on a FACS Vantage SE Flow Cytometer fitted with an Automatic Cell Deposition Unit. Control cells were non-induced cells treated in a similar manner. Positively stained cells were sorted as single cells into 96-well plates, containing Complete Medium containing 500 μg ml^−1 Zeocin™ and allowed to expand before reanalysis for receptor expression via antibody and ligand binding studies. One clone, 3H3, was selected for membrane preparation.
(ii) Membrane Preparation from Cultured Cells
All steps of the protocol are carried out at 4° C. and with pre-cooled reagents. The cell pellet is resuspended in 10 volumes of buffer A2 containing 50 mM N-2-hydroxyethylpiperazine-N′-2-ethanesulfonic acid (HEPES) (pH 7.40) supplemented with […] leupeptin (acetyl-leucyl-leucyl-arginal; Sigma L2884), 25 μg/ml bacitracin (Sigma B0125), 1 mM ethylenediamine tetra-acetic acid (EDTA), 1 mM phenylmethylsulfonyl fluoride (PMSF) and 2×10e-6M pepstain A (Sigma). […]

T1 sequence (Q9Y5N1 whole entry): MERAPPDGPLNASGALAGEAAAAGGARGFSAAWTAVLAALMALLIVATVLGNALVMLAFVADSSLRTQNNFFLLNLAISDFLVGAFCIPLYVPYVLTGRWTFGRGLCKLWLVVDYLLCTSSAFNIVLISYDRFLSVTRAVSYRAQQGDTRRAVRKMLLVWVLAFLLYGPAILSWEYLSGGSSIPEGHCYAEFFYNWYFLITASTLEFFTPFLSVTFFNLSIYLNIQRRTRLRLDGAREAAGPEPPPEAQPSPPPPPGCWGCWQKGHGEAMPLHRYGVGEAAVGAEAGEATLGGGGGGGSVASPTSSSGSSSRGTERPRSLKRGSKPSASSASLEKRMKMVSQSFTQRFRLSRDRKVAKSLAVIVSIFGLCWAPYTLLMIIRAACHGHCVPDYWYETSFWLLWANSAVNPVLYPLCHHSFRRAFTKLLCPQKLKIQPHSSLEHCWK

SMILES	Ki [nM]
CC(C)N1CCC(OC2CCN(c3ccc(C#N)cn3)CC2)CC1 [Example E1, 6-(4-([1-(1-Methylethyl)-4-piperidinyl]oxy}-1-piperidinyl)-3-pyridinecarbonitrile hydrochloride]	< 10
N#Cc1ccc(N2CCC(OC3CCN(C4CCC4)CC3)CC2)nc1 [Example E2, 6-{4-[(1-Cyclobutyl-4-piperidinyl)oxy]-1-piperidinyl}-3-pyridinecarbonitrile hydrochloride]	≤ 1
N#Cc1ccc(N2CCC(OC3CCN(C4CCC4)CC3)CC2)cc1 [Example E3, 4-{4-[(1-Cyclobutyl-4-piperidinyl)oxy]-1-piperidinyl}benzonitrile hydrochloride]	≤ 1
CC(C)N1CCC(OC2CCN(c3ccc(C#N)cc3)CC2)CC1 [Example E4, 4-(4-{[1-(1-Methylethyl)-4-piperidinyl]oxy}-1-piperidinyl)benzonitrile hydrochloride]	≤ 1
O=C(c1ccc(N2CCC(OC3CCN(C4CCC4)CC3)CC2)cc1)N1CCOCC1 [Example E5, 4-[(4-{4-[(1-Cyclobutyl-4-piperidinyl)oxy]-1-piperidinyl}phenyl)carbonyl]morpholine hydrochloride]	≤ 1
CNC(=O)c1ccc(N2CCC(OC3CCN(C4CCC4)CC3)CC2)cc1 [Example E6, 4-[4-[(1-Cyclobutyl-4-piperidinyl)oxy]-1-piperidinyl)-N-methylbenzamide hydrochloride]	≤ 1
CC(C)N1CCC(OC2CCN(c3ccc(C(=O)N4CCOCC4)cc3)CC2)CC1 [Example E7]	≤ 1
CC(C)N1CCC(OC2CCN(c3ccc(C(=O)N4CCCCC4)cc3)CC2)CC1 [Example E8]	≤ 1
CC(C)N1CCC(OC2CCN(c3ccc(C(=O)N4CCCC4)cc3)CC2)CC1 [Example E10]	≤ 1
O=C(c1ccc(N2CCC(OC3CCN(C4CCC4)CC3)CC2)cc1)N1CCCC1 [Example E11]	≤ 1
CC(C)N1CCC(OC2CCN(c3ccc(C(=O)N(C)C)cc3)CC2)CC1 [Example E12]	≤ 1
CN(C)C(=O)c1ccc(N2CCC(OC3CCN(C4CCC4)CC3)CC2)cc1 [Example E13]	≤ 1
CNC(=O)c1ccc(N2CCC(OC3CCN(C(C)C)CC3)CC2)cc1 [Example E14]	< 10
O=C(NCCCCl)c1ccc(N2CCC(OC3CCN(C4CCC4)CC3)CC2)cc1 [Example E15, N-(3-Chloropropyl)-4-{4-[(1-cyclobutyl-4-piperidinyl)oxy]-1-piperidinyl}benzamide hydrochloride]	≤ 1
Cc1nc(-c2ccc(N3CCC(OC4CCN(C5CCC5)CC4)CC3)cc2)co1 [Example E16, 1-Cyclobutyl-4-({1-[4-(2-methyl-1,3-oxazol-4-yl)phenyl]-4-piperidinyl}oxy)piperidine hydrochloride]	≤ 1
Cc1noc(-c2ccc(N3CCC(OC4CCN(C(C)C)CC4)CC3)cc2)n1 [Example E17, 1-(1-Methylethyl)-4-({1-[4-(3-methyl-1,2,4-oxadiazol-5-yl)phenyl]-4-piperidinyl}oxy)piperidine hydrochloride]	< 0.316
Cc1nc(-c2ccc(N3CCC(OC4CCN(C(C)C)CC4)CC3)cc2)co1 [Example E18]	< 10
CC(C)N1CCC(OC2CCN(c3ccc(-c4ncco4)cc3)CC2)CC1 [Example E19]	< 10
Cc1ncc(-c2ccc(N3CCC(OC4CCN(C(C)C)CC4)CC3)cc2)o1 [Example E20]	< 10
c1coc(-c2ccc(N3CCC(OC4CCN(C5CCC5)CC4)CC3)cc2)n1 [Example E21]	≤ 1
Cc1ncc(-c2ccc(N3CCC(OC4CCN(C5CCC5)CC4)CC3)cc2)o1 [Example E22]	≤ 1
Cc1cc(-c2ccc(N3CCC(OC4CCN(C(C)C)CC4)CC3)cc2)on1 [Example E23]	≤ 1
Cc1cc(-c2ccc(N3CCC(OC4CCN(C5CCC5)CC4)CC3)cc2)on1 [Example E24]	≤ 1
Cc1nc(-c2ccc(N3CCC(OC4CCN(C5CCC5)CC4)CC3)cc2)no1 [Example E25]	≤ 1

SMILES	Ki [nM]
CC(C)N1CCC(OC2CCN(c3ccc(-c4nnc(-c5ccccc5)o4)cc3)CC2)CC1 [Example E26]	≤ 1
c1ccc(-c2nnc(-c3ccc(N4CCC(OC5CCN(C6CCC6)CC5)CC4)cc3)o2)cc1 [Example E27]	≤ 1
Cc1noc(-c2ccc(N3CCC(OC4CCN(C5CCC5)CC4)CC3)cc2)n1 [Example E28]	≤ 1
c1ncc(-c2ccc(N3CCC(OC4CCN(C5CCC5)CC4)CC3)cc2)o1 [Example E29]	≤ 1
CC(C)N1CCC(OC2CCN(c3ccc(-c4cnco4)cc3)CC2)CC1 [Example E30]	≤ 1
CN(C)C(=O)c1ccc(N2CCC(OC3CCN(C4CCC4)CC3)CC2)cn1 [Example E31, 5-{4-[(1-Cyclobutyl-4-piperidinyl)oxy]-1-piperidinyl}-N,N-dimethyl-2-pyridinecarboxamide hydrochloride]	≤ 1
CC(C)N1CCC(OC2CCN(c3ccc(C(=O)N(C)C)nc3)CC2)CC1 [Example E32]	≤ 1
CC(C)N1CCC(OC2CCN(c3ccc(C(=O)N4CCCC4)nc3)CC2)CC1 [Example E33]	≤ 1
CC(C)N1CCC(OC2CCN(c3ccc(C(=O)N4CCCCC4)nc3)CC2)CC1 [Example E34]	≤ 1
O=C(c1ccc(N2CCC(OC3CCN(C4CCC4)CC3)CC2)cn1)N1CCCCC1 [Example E35]	≤ 1
CC(C)N1CCC(OC2CCN(c3ccc(C(=O)N4CCOCC4)nc3)CC2)CC1 [Example E36]	≤ 1
O=C(c1ccc(N2CCC(OC3CCN(C4CCC4)CC3)CC2)cn1)N1CCOCC1 [Example E37]	≤ 1
CNC(=O)c1ccc(N2CCC(OC3CCN(C4CCC4)CC3)CC2)cn1 [Example E38, 5-{4-[(1-Cyclobutyl-4-piperidinyl)oxy]-1-piperidinyl}-N-methyl-2-pyridinecarboxamide hydrochloride]	< 0.316
CCNC(=O)c1ccc(N2CCC(OC3CCN(C(C)C)CC3)CC2)cn1 [Example E39]	≤ 1
CCCNC(=O)c1ccc(N2CCC(OC3CCN(C(C)C)CC3)CC2)cn1 [Example E41]	≤ 1
CC(C)N1CCC(OC2CCN(c3ccc(C(=O)NC4CCCC4)nc3)CC2)CC1 [Example E45]	≤ 1
O=C(NC1CCCC1)c1ccc(N2CCC(OC3CCN(C4CCC4)CC3)CC2)cn1 [Example E46]	≤ 1
N#Cc1ccc(N2CCC(OC3CCN(C4CCC4)CC3)CC2)cn1 [Example E47, 5-{4-[(1-Cyclobutyl-4-piperidinyl)oxy]-1-piperidinyl}-2-pyridinecarbonitrile hydrochloride]	≤ 1
CC(=O)c1ccc(N2CCC(OC3CCN(C4CCC4)CC3)CC2)cc1 [Example E48, 1-(4-{4-[(1-Cyclobutyl-4-piperidinyl)oxy]-1-piperidinyl}phenyl)ethanone hydrochloride]	< 0.316
FC(F)(F)c1ccc(N2CCC(OC3CCN(C4CCC4)CC3)CC2)cn1 [Example E49, 5-{4-[(1-Cyclobutyl-4-piperidinyl)oxy]-1-piperidinyl}-2-(trifluoromethyl)pyridine hydrochloride]	≤ 1
CNC(=O)c1ccc(N2CCC(OC3CCN(C(C)C)CC3)CC2)nc1 [Example E50]	< 10
CC(C)N1CCC(OC2CCN(c3ccc(C(=O)N(C)C)cn3)CC2)CC1 [Example E51]	< 10
CC(C)N1CCC(OC2CCN(c3ccc(C(=O)N4CCCC4)cn3)CC2)CC1 [Example E52]	< 10
